Data on ten compounds can be found in patent US5401754A, “Agent for treating thrombosis and phosphodiesterase inhibitor” (Otsuka Pharmaceutical Company, Limited, priority 1991, dated 1995).

The subject of test [1] is C-AMP phosphodiesterase. The test can be described thus: C-AMP phosphodiesterase inhibitory activity (Pharmacological test 2). In kind it is biochemical, dog. The conditions noted are these: C-AMP 0.4 μmol.
The test system of test [2] is platelet aggregation (platelet rich plasma). The test can be described thus: Platelet aggregation inhibitory activity, ADP-induced (Pharmacological test 1). The class given is cell-based, human beings. The settings on record: Homo sapiens, ADP (14 to 16 μM), read-out: Platelet aggregation inhibitory rate (%); for inhibition at 100 µM: Conc. 10^-4 mol; for inhibition at 10 µM: Conc. 10^-5 mol; for inhibition at 1 µM: Conc. 10^-6 mol. On the procedure:
(§1) The platelet aggregation inhibitory activity of test compounds was measured in accordance with the method of Born et al. [J. Physiol., London, 162, 67, (1962)] using a platelet aggregator [Platelet Aggregation Tracer manufactured by Niko Biosceince K.K.].
(§2) To 9 volumes of blood taken from human beings was added 1 volume of 3.8% citric acid and this sample was centrifuged at 1100 rpm for 10 minutes to give a platelet rich plasma (PRP). The remaining sample was further centrifuged at 3000 rpm for 15 minutes to give a platelet poor plasma (PPP).
(§3) The platelets in the PRP obtained above was counted using Coulter Counter, Coulter electronics inc. and diluted to 300000 platelets/μl with the PPP to prepare a PRP solution.
(§4) A cell for measurement of aggregation was charged with a solution containing a fixed concentration of test compounds (1 to 2 μl) and the PRP solution prepared above (200 μl) and warmed at 37° C. for 1 minute. Then, to the cell was added a suspension of adenosine diphosphate (ADP, manufactured by Sigma) or collagen (Collagen Reagent Horm, manufactured by Hormon-Chemie) to induce platelet aggregation and the transparency of the cell was measured and a platelet aggregation curve was prepared. The final concentration of the above ADP and the collagen was adjusted to 14 to 16 μM and 1 to 4 μg/ml, respectively.
(§5) Maximum Aggregation Rate (MAR) of platelets was calculated from the platelet aggregation curve by the following formula: […]
(§6) wherein (a) represents the transparency of PRP measured in the similar test, (b) represents the transparency of the PRP solution containing the test compound and the aggregation inducer at the time of maximum change in the above test, and (c) represents the transparency of the PPP solution measured in the similar test.
(§7) MAR for control with no addition of the test compound was also calculated, and based on this value, the platelet aggregation inhibitory rate (%) of each test compound at various concentrations in the above test was calculated from the following formula:
(§8) Inhibitory rate=[1-(MAR of PRP with addition of test compound)/(MAR of PRP
(§9) with no addition of test compound)]×100

For test [3] the test system is unchanged. As to the kind of experiment: Platelet aggregation inhibitory activity, collagen-induced (Pharmacological test 1). The settings on record: Homo sapiens, Collagen (1 to 4 μg/ml), read-out: Platelet aggregation inhibitory rate (%); for inhibition at 100 µM: Conc. 10^-4 mol; for inhibition at 10 µM: Conc. 10^-5 mol; for inhibition at 1 µM: Conc. 10^-6 mol. The class given is cell-based, human beings. The procedure:
as §1, §2, §3, §4, §5, §6, §7, §8, §9

For test [4], the system named is aggregates of platelet (platelet rich plasma). As to the kind of experiment: Platelet aggregate dissociation, ADP-induced aggregates (Pharmacological Test 4). In kind it is cell-based, human beings. The settings on record: Homo sapiens, 5 min, after 5 minutes, read-out: Platelet aggregate dissociation rate (%). The procedure:
as §2, §3
(§10) In the same manner as in the above test 1, the obtained PRP solution (200 μl ) was put in cell for measurement of aggregation and the cell was warmed at 37° C. for 1 minute. Thereto was added ADP or collagen suspension (final concentration of 14 to 16 μM and 1 to 4 μg/ml, respectively) without addition of the test compound to form aggregates of platelet. MAR was determined after stable transparency was obtained. This MAR was referred to as "MAR-1". Then, the test compound was added and MAR was determined from the transparency after 5 minutes. This MAR was referred to as "MAR-2".
(§11) Platelet aggregate dissociation rate (%) was calculated in accordance with the following formula: […]
(§12) Platelet aggregate dissociation rate
(§13) (%)=[(MAR-1)-(MAR-2)]/(MAR-1)×100

For test [5], the system named is Brain blood flow. The test can be described thus: Topical blood flow in the brain, colored microspheres, anesthetized dog (Pharmacological Test 3). The class given is in vivo, hybrid dog.
Test [6] has as its system Cerebellum blood flow. As to the kind of experiment: Topical blood flow in the cerebellum, colored microspheres, anesthetized dog (Pharmacological Test 3). The class given is in vivo, hybrid dog.
Test [7] concerns aggregates of platelet (platelet rich plasma). The test can be described thus: Platelet aggregate dissociation, collagen-induced aggregates (Pharmacological Test 4). In kind it is cell-based, human beings. The conditions noted are these: Homo sapiens, 5 min, after 5 minutes, read-out: Platelet aggregate dissociation rate (%). The procedure: as §2, §3, §10, §11, §12, §13
Where [8] appears, read: 3 μg/kg/min i.v. over 30 minutes.
The mark [9] stands for this setting: 10 μg/kg/min i.v. over 30 minutes.

Molecules are shown by their SMILES.

Take `O=c1ccc2cc(OCC(O)CNCc3ccc(Cl)cc3)ccc2[nH]1` (stereo not shown) [compound 3]: the “Phosphodiesterase inhibitory rate (%)” value in test [1] (Conc. 10^-4 mol) turned out to be 32.46%. Also, in test [1] (Conc. 10^-5 mol), the “Phosphodiesterase inhibitory rate (%)” value was 86.11%. In addition, in test [2], the inhibition at 100 µM came to 78.2%, the inhibition at 10 µM was 44.5% and the inhibition at 1 µM is 13.2%. Besides, in test [3], the inhibition at 100 µM was 97.8%, the inhibition at 10 µM was determined as 96.7% and the inhibition at 1 µM stood at 17%.

Turning to `O=c1ccc2cc(OCC(O)CN(CCO)Cc3ccc(F)cc3)ccc2[nH]1` (stereo not shown) [compound 10], the “Phosphodiesterase inhibitory rate (%)” value is reported as 23.90% in test [1] (Conc. 10^-4 mol) and 74.63% in test [1] (Conc. 10^-5 mol).

For the compound `COc1ccc(CNCC(O)COc2ccc3[nH]c(=O)ccc3c2)cc1` (stereo not shown) [compound 6], in test [2], the inhibition at 100 µM came to 77.5%, the inhibition at 10 µM was 43.8% and the inhibition at 1 µM was found to be 7.4%. In test [3], the inhibition at 100 µM amounted to 97%, the inhibition at 10 µM stood at 96.7% and the inhibition at 1 µM is 17%.

In the case of `CN(CCN(C)c1ccccc1)CC(O)COc1ccc2[nH]c(=O)ccc2c1` (stereo not shown) [compound 5], in test [2], the inhibition at 100 µM is 84.8%, the inhibition at 10 µM is 38.4% and the inhibition at 1 µM came to 21.6%. Also, in test [3], the inhibition at 100 µM amounted to 96.5%, the inhibition at 10 µM amounted to 72.9% and the inhibition at 1 µM is 44.4%.

On to `COc1cccc(CNCC(O)COc2ccc3[nH]c(=O)ccc3c2)c1` (stereo not shown) [compound 2], for which the “Phosphodiesterase inhibitory rate (%)” value in test [1] (Conc. 10^-4 mol) was 2.32%. Besides, the “Phosphodiesterase inhibitory rate (%)” value in test [1] (Conc. 10^-5 mol) is 48.63%. Further, in test [2], the inhibition at 100 µM was 89.1%, the inhibition at 10 µM was found to be 43.9% and the inhibition at 1 µM stood at 14.9%. In test [3], the inhibition at 100 µM turned out to be 97.2%, the inhibition at 10 µM was 95.7% and the inhibition at 1 µM was 23.1%.

Regarding `CN(Cc1ccccc1)CC(O)COc1ccc2[nH]c(=O)ccc2c1` (stereo not shown) [compound 1], in test [2], the inhibition at 100 µM came to 79%, the inhibition at 10 µM was determined as 31.7% and the inhibition at 1 µM was 14.9%. In test [3], the inhibition at 100 µM stood at 96.3%, the inhibition at 10 µM came to 70.7% and the inhibition at 1 µM stood at 3.8%.

Turning to `CN(Cc1ccccn1)CC(O)COc1ccc2[nH]c(=O)ccc2c1` (stereo not shown) [compound 4], in test [2], the inhibition at 100 µM came out at 77.5%, the inhibition at 10 µM came out at 30.5% and the inhibition at 1 µM amounted to 13.5%. Moreover, in test [3], the inhibition at 100 µM stood at 97.2% and the inhibition at 10 µM was 64.3%.

On to `O=c1ccc2cc(OCC(O)CNCc3cccc(Cl)c3)ccc2[nH]1` (stereo not shown) [compound 8], for which, in test [2], the inhibition at 100 µM was found to be 62%, the inhibition at 10 µM was 27.4% and the inhibition at 1 µM is 5.1%. Besides, in test [3], the inhibition at 100 µM is 93.1%, the inhibition at 10 µM worked out at 27.7% and the inhibition at 1 µM came to 12.3%.

`CCOc1ccc(CNCC(O)COc2ccc3[nH]c(=O)ccc3c2)cc1OCC` (stereo not shown) [compound 9]: the “Phosphodiesterase inhibitory rate (%)” value was determined as 50.63% in test [1] (Conc. 10^-4 mol) and 89.07% in test [1] (Conc. 10^-5 mol).

As for `COc1ccc(CNCC(O)COc2ccc3[nH]c(=O)ccc3c2)cc1OC` (stereo not shown) [compound 7], the “Phosphodiesterase inhibitory rate (%)” value turned out to be 15.27% in test [1] (Conc. 10^-4 mol) and 72.39% in test [1] (Conc. 10^-5 mol). For the same compound, the inhibition at 10 µM in test [4] (Conc. 10 μmol) is 41.5%; in test [2] it was 39%; in test [3], 91.6%; in test [7] (Conc. 10 μmol), 13.3%. The values for the inhibition at 30 µM in test [4] (Conc. 30 μmol) and in test [7] (Conc. 30 μmol) were 43.3% and 26.7%, respectively. The inhibition at 100 µM in test [4] (Conc. 100 μmol) stood at 71.7%; in test [2], 96.4%; in test [3] it was 96.9%; in test [7] (Conc. 100 μmol), 28%. The inhibition at 1 µM is 9.5% in test [2] and 4.1% in test [3]. For the same compound, the “Increasing rate of blood flow (%)” value turned out to be 25.9 ± 7.0% in test [5] (setting [8]), 57.8 ± 10.9% in test [5] (setting [9]), 15.2 ± 11.5% in test [6] (setting [8]) and 29.7 ± 11.5% in test [6] (setting [9]).
